Data published in article PMC10018692 (ACS Omega, 2023).
In brackets after ≈: the same amount, converted by molar mass.

How the values were obtained:
[1] = Pharmacokinetic study in albino rats; format: in vivo; details: 10 mg/kg
[2] = Drug solubility of free PTL and PTL-loaded nanoparticles; format: physicochemical; details: phosphate buffer, pH 7.4

AUC(0-inf) ([1]; rat, plasma, po): 2980 ± 53.1 ng·h/mL
AUC(0-t) ([1]; rat, plasma, po): 2830 ± 56.8 ng·h/mL
Cmax ([1]; rat, plasma, po): 239 ± 26.2 ng/mL
Tmax ([1]; rat, plasma, po): 2 ± 0.05 h
half-life ([1]; rat, plasma, po): 8.76 ± 1.1 h
Kel ([1]; rats): 0.072 ± 0.001
plasma PTL concentration after 12 h ([1]; rats, HPLC): below the HPLC quantification limit
solubility at 24 h [2]: ~4.5 µg/mL (≈ 5.27 µM)
SMILES: CC(=O)O[C@H]1C(=O)[C@@]2(C)[C@H]([C@H](OC(=O)c3ccccc3)[C@]3(O)C[C@H](OC(=O)[C@H](O)[C@@H](NC(=O)c4ccccc4)c4ccccc4)C(C)=C1C3(C)C)[C@]1(OC(C)=O)CO[C@@H]1C[C@@H]2O [PTL, Paclitaxel]
